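Test compounds were applied to cells in 96-well plates for 48 hours at 5 doses. At the GI50, growth is halved. TGI: total growth inhibition.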
Key:
Assay in all cases: DTP human tumour cell line panel, 48 h
[1] = tested on: MDA-MB-231 breast
[2] = tested on: SF-295 CNS
[3] = tested on: MOLT-4 leukemia
[4] = tested on: CCRF-CEM leukemia
[5] = tested on: HCC-2998 colon
[6] = tested on: A549 NSCLC
[7] = tested on: TK-10 renal
[8] = tested on: K-562 leukemia
[9] = tested on: ACHN renal
[10] = tested on: SNB-75 CNS
[11] = tested on: DU-145 prostate
[12] = tested on: SNB-19 CNS
[13] = tested on: 786-0 renal
[14] = tested on: LOX IMVI melanoma
[15] = tested on: HT29 colon
[16] = tested on: SW-620 colon
[17] = tested on: SK-MEL-2 melanoma
[18] = tested on: UACC-62 melanoma
[19] = tested on: NCI-H23 lung
[20] = tested on: OVCAR-4 ovarian
[21] = tested on: HOP-92 NSCLC
[22] = tested on: NCI-H226 lung
[23] = tested on: HS 578T breast
[24] = tested on: HCT-15 colon
[25] = tested on: SN12C renal
[26] = tested on: CAKI-1 renal
[27] = tested on: BT-549 breast
[28] = tested on: PC-3 prostate
[29] = tested on: IGROV1 ovarian
[30] = tested on: HCT-116 colon
[31] = tested on: MALME-3M melanoma
[32] = tested on: EKVX NSCLC
[33] = tested on: RXF 393 renal
[34] = tested on: KM12 colon
[35] = tested on: MDA-MB-435
[36] = tested on: UACC-257 melanoma
[37] = tested on: SK-MEL-5 melanoma
[38] = tested on: A498 renal
[39] = tested on: NCI/ADR-RES ovarian
[40] = tested on: MDA-MB-468 breast
[41] = tested on: UO-31 renal
[42] = tested on: OVCAR-3 ovarian
[43] = tested on: COLO 205 colon
[44] = tested on: SR leukemia
[45] = tested on: U251 CNS
[46] = tested on: NCI-H460 lung
[47] = tested on: SK-MEL-28 melanoma
[48] = tested on: RPMI-8226 leukemia
[49] = tested on: OVCAR-5 ovarian
[50] = tested on: SF-268 CNS
[51] = tested on: T-47D breast
[52] = tested on: M14 melanoma
[53] = tested on: HL-60(TB) leukemia
[54] = tested on: MCF7 breast
[55] = tested on: HOP-62 NSCLC
[56] = tested on: SK-OV-3 ovarian
[57] = tested on: NCI-H522 lung
[58] = tested on: SF-539 CNS
[59] = tested on: OVCAR-8 ovarian

## C/C(=C\CC/C=C(\C)CC/C=C(\C)CC[C@@H](O)C(C)(C)O)CC/C=C(\C)CC[C@@H](O)C(C)(C)O
[1]
  GI50: 13.6 µM
  TGI: 26.5 µM
[2]
  GI50: 7.84 µM
  TGI: 20.9 µM
[3]
  GI50: 14.4 µM
  TGI: 44.6 µM
[4]
  GI50: 17.9 µM
  TGI: 39.7 µM
[5]
  GI50: 13.5 µM
  TGI: 26.4 µM
[6]
  GI50: 10 µM
  TGI: 30.2 µM
[7]
  GI50: 17.6 µM
  TGI: 32.5 µM
[8]
  GI50: 5.07 µM
  TGI: > 100 µM
[9]
  GI50: 5.78 µM
  TGI: 18.3 µM
[10]
  GI50: 12.5 µM
  TGI: 25 µM
[11]
  GI50: 15.5 µM
  TGI: 29 µM
[12]
  GI50: 15 µM
  TGI: 28.5 µM
[13]
  GI50: 10.8 µM
  TGI: 24.1 µM
[14]
  GI50: 13.4 µM
  TGI: 26.4 µM
[15]
  GI50: 12 µM
  TGI: 27.4 µM
[16]
  GI50: 14.9 µM
  TGI: 29.4 µM
[17]
  GI50: 14.4 µM
  TGI: 30 µM
[18]
  GI50: 9.71 µM
  TGI: 21.6 µM
[19]
  GI50: 10.9 µM
  TGI: 23.2 µM
[20]
  GI50: 11 µM
  TGI: 23.4 µM
[21]
  GI50: 10.2 µM
  TGI: 23.9 µM
[22]
  GI50: 12.6 µM
  TGI: 27.3 µM
[23]
  GI50: 10.3 µM
  TGI: 26.1 µM
[24]
  GI50: 10.9 µM
  TGI: 22.8 µM
[25]
  GI50: 12.6 µM
  TGI: 25.3 µM
[26]
  GI50: 12.3 µM
  TGI: 25.1 µM
[27]
  GI50: 5.14 µM
  TGI: 17.4 µM
[28]
  GI50: 5.16 µM
  TGI: 20.1 µM
[29]
  GI50: 15.4 µM
  TGI: 29.2 µM
[30]
  GI50: 6.39 µM
  TGI: 21.3 µM
[31]
  GI50: 12 µM
  TGI: 24.5 µM
[32]
  GI50: 7.68 µM
  TGI: 20.5 µM
[33]
  GI50: 5.93 µM
  TGI: 20.1 µM
[34]
  GI50: 13.9 µM
  TGI: 27.3 µM
[35]
  GI50: 14.7 µM
  TGI: 28 µM
[36]
  GI50: 10.7 µM
  TGI: 23.7 µM
[37]
  GI50: 5.06 µM
  TGI: 17.4 µM
[38]
  GI50: 12.6 µM
  TGI: 25.7 µM
[39]
  GI50: 11.1 µM
  TGI: 23.6 µM
[40]
  GI50: 7.97 µM
  TGI: 21.1 µM
[41]
  GI50: 7.71 µM
  TGI: 20.7 µM
[42]
  GI50: 13.7 µM
  TGI: 26.7 µM
[43]
  GI50: 17.8 µM
  TGI: 34.6 µM
[44]
  GI50: 18.5 µM
  TGI: 67.8 µM
[45]
  GI50: 13.4 µM
  TGI: 38.1 µM
[46]
  GI50: 11.3 µM
  TGI: 24.5 µM
[47]
  GI50: 12.6 µM
  TGI: 25.4 µM
[48]
  GI50: 3.74 µM
  TGI: 18.9 µM
[49]
  GI50: 14.5 µM
  TGI: 27.8 µM
[50]
  GI50: 13.6 µM
  TGI: 28.3 µM
[51]
  GI50: 7.75 µM
  TGI: 25 µM
[52]
  GI50: 10.4 µM
  TGI: 23.1 µM
[53]
  GI50: 3.1 µM
  TGI: 11.2 µM
[54]
  GI50: 6.7 µM
  TGI: 20 µM
[55]
  GI50: 17 µM
  TGI: 34.6 µM
[56]
  GI50: 15.8 µM
  TGI: 31 µM
[57]
  GI50: 11 µM
  TGI: 25.9 µM
[58]
  GI50: 13.1 µM
  TGI: 26.1 µM
[59]
  GI50: 15 µM
  TGI: 34.8 µM

Reference: PubChem BioAssay (NCI)
